Source: patent US20070111990A1, “3-Aza-1-oxa-dibenzo[e,h]azulenes for the treatment of central nervous system diseases and disorders” (GLAXOSMITHKLINE ISTRAZIVACKI CENTAR ZAGREB D.O.O., priority 2003, published 2007)
pIC50, pKi: −log10 of the molar value.

Legend:
5-HT2C receptor = target: T1, 5-HT2C receptor (Homo sapiens, UniProt P28335); assay: radioligand binding assay for 5-HT2C receptor ([3H]-mesulergine); conditions: competitive binding; for pIC50: choroid plexus or recombinant 5-HT2C in CHO-K1, read-out: binding affinity to 5-HT2C serotonin receptor expressed as IC50 value; for pKi: choroid plexus or recombinant 5-HT2C in CHO-K1, read-out: binding affinity to 5-HT2C serotonin receptor, Ki value
T1 construct: expressed in transfected cells; host or cells: CHO-K1 cells (alternatively choroid plexus tissue)
T1 sequence (P28335 33-458): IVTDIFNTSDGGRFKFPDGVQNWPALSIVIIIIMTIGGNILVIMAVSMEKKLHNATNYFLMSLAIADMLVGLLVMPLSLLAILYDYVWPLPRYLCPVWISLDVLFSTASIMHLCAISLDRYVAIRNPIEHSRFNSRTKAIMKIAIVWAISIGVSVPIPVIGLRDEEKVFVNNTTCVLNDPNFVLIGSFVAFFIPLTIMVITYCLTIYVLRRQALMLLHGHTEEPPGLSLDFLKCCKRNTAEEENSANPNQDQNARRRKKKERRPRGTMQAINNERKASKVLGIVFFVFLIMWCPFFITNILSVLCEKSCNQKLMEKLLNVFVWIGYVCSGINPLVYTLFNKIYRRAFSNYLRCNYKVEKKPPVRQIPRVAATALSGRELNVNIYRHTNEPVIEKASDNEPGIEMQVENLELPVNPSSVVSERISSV
Procedure: (§1) The effect of the compounds of the present invention on the neurochemical steady state was determined by in vitro investigations such as a radionuclide-marked radioligand binding assay for 5-HT2A (Bonhaus D. W. Br. J. Pharmacol. 1995, 115:622; Saucier C. J. Neurochem. 1997, 68:1998) and 5-HT2C receptors (Wolf W. A. J. Neurochem. 1997, 69:1449), in vitro binding assay for σ1 receptor (Thomson W. and Donn R. Arthritis Res. 2002, 4: 302-306) and by in vivo investigations in a tail suspension test (Vogel H. G. and Vogel W. H. Drug Discovery and Evaluation Pharmacological Assays, Springer 1997, 304), in amphethamine-induced hyperlocomotion in mice (Millan M. J. et al, 1998 J Pharmacol. Exp. Ther. 287: 167-186), in a forced swim test in mice (Porsolt R. D. et al. Arch. Int. Pharmacodyn. 1977, 229:327-336), in meta-chlorophenyl piperazine (m-CPP) test on rats (Drug Dev. Res. 1989, 18:119-144), and in apomorphine, tryptamine, norepinephrine (ATN) test in rats (Arch. Int. Pharmacodyn. 1977, 227:238-253).
(§2) In Vitro Method for Determining Affinity for Binding to 5-HT2A and 5-HT2C Receptors
(§3) A small concentration of a radioligand having a great affinity for binding to a receptor was incubated with a tissue sample enriched with a certain receptor (1-5 mg of tissue) in a buffered medium (0.2-5 mL). Recombinant human HT2A and HT2C receptors were expressed in CHO-K1 or COS-7 cells and were also used for competitive binding. During incubation the radioligand bound to the receptor. When a binding balance was achieved, the receptors to which the radioligand was bound were separated from those to which said ligand was not bound, and the radioactivity of the receptor/radioligand complex was measured. The interaction of the tested compounds with receptors was tested in competitive binding experiments. Various concentrations of tested compounds were added to the incubation mixture containing a prepared tissue enriched with corresponding receptors and the radioligand. The radioligand binding was inhibited by the test compounds proportionally to the affinity of a certain compound for the receptor and to the concentration of the compound.
The radioligand used for the determination of binding to 5-HT2C receptor was [^3H]-mesulergine and the tissue used was choroid plexus or recombinant 5-HT2C receptor expressed in CHO—K1 cells.

5-HT2A receptor = target: T2, 5-HT2A receptor (Homo sapiens, UniProt P28223); assay: radioligand binding assay for 5-HT2A receptor ([3H]-ketanserin); conditions: competitive binding; for pIC50: human cortex or recombinant 5-HT2A in CHO-K1, read-out: binding affinity to 5-HT2A serotonin receptor expressed as IC50 value; for pKi: human cortex or recombinant 5-HT2A in CHO-K1, read-out: binding affinity to 5-HT2A serotonin receptor, Ki value
T2 construct: expressed in transfected cells; host or cells: CHO-K1 (alternatively human cortex tissue)
T2 sequence (P28223 whole entry): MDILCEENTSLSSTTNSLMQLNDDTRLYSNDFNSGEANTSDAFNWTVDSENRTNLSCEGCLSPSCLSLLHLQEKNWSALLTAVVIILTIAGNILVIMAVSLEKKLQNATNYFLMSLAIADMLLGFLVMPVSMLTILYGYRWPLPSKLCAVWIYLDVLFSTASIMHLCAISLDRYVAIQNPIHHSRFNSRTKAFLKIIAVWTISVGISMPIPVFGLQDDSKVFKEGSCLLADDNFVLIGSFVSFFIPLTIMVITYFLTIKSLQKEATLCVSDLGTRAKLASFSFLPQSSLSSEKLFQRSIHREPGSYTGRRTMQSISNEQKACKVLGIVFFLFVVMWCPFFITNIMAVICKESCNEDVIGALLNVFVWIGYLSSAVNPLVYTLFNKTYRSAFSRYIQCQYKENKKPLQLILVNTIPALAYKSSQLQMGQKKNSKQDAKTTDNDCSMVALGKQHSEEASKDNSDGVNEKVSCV
Procedure: as §1, §2, §3
The radioligand used for the determination of binding to ^5-HT2A receptor was [^3H]-ketanserin and the tissue used was human cortex or recombinant 5-HT2A receptor expressed in CHO—K1.

SMILES | pIC50 (5-HT2C receptor) | pKi (5-HT2C receptor) | pIC50 (5-HT2A receptor) | pKi (5-HT2A receptor)
Cc1nc2c(o1)-c1ccccc1Oc1ccc(Cl)cc1-2 [5-chloro-2-methyl-1,8-dioxa-3-aza-dibenzo[e,h]azulene] | > 6.70 | > 7.00 | > 6.70 | > 7.00
CN(C)CCOCc1nc2c(o1)-c1ccccc1Sc1ccc(Cl)cc1-2 [[2-(5-chloro-1-oxa-8-thia-3-aza-dibenzo[e,h]azulen-2-ylmethoxy)-ethyl]-dimethyl-amine] | > 6.70 | > 7.00 | > 6.70 | > 7.00
CN(C)CCOCc1nc2c(o1)-c1cc(Cl)ccc1Sc1ccccc1-2 [[2-(11-chloro-1-oxa-8-thia-3-aza-dibenzo[e,h]azulen-2-ylmethoxy)-ethyl]-dimethyl-amine] | > 6.70 | > 7.00 | > 6.70 | > 7.00

Next, values leading:

pIC50 (5-HT2C receptor) | pKi (5-HT2C receptor) | pIC50 (5-HT2A receptor) | pKi (5-HT2A receptor) | SMILES
> 6.70 | > 7.00 | > 6.70 | > 7.00 | c1ccc2c(c1)Sc1ccccc1-c1ocnc1-2 [1-oxa-8-thia-3-aza-dibenzo[e,h]azulene]
> 6.70 | > 7.00 | > 6.70 | > 7.00 | CN(C)CCOCc1nc2c(o1)-c1ccccc1Sc1ccccc1-2 [dimethyl-[2-(1-oxa-8-thia-3-aza-dibenzo[e,h]azulen-2-ylmethoxy)-ethyl]-amine]
